doi:10.1101/2025.03.14.643303, “A genome-scale drug discovery pipeline uncovers new therapeutic targets and a unique p97 allosteric binding site in Schistosoma mansoni” (bioRxiv, 2025)
Entries after “also recorded” stand apart in the source; their conditions may differ. Where two headings read alike, the source gives them in different places.

What was measured:
[1] = tested on: S. mansoni vcp/p97 (Smp_018240); assay: High-throughput screening (HTS) assay, Kinase-Glo, 10 μM single concentration; type: biochemical, Schistosoma mansoni; settings: for Screen Inhibition: 10 μM compound, normalized to CB-5083, Fig. 4A; for inhibition of S. mansoni p97 function in the screen: high-throughput screen
Description: Kinase-Glo (Promega, part K1214) was purchased from Promega. Microtiter plates (384 wells) were purchased from Perkin Elmer. All chemicals included in the UTSW library were sourced from commercial sources [ChemDiv (150,000 compounds), ChemBridge (125,500), ComGenex (22,000), Prestwick Chemical, (1,100) and TimTec (500)] or UT Southwestern chemists (https://www.utsouthwestern.edu/research/core-facilities/high-throughput-screening/libraries/). For initial screening, compounds were dispensed by Echo 555 robot for a final concentration of 10 μM (0.2% DMSO). Luminescence was read by EnVision multimode plate reader (Perkin-Elmer). Assay conditions were consistent between manual and high-throughput assays [10 μM ATP, 50 mM Tris (pH 7.5), 20 mM MgCl2, 1 mM EDTA, 0.5 mM tris(2-carboxyethyl)phosphine (TCEP)]. The plates were then incubated for 50 min at room temperature before addition of Kinase-Glo reagent and further incubation in the dark for 10 minutes before reading luminescence. […] Hit compounds were validated using a dose-response curve (19.8 μM, 9.92 μM, 4.96 μM, 3.72 μM, 2.48 μM, 1,24 μM, 0.619 μM, 0.342 μM, 0.256 μM, 0.171 μM, 0.0854 μM, 0.0427 μM, and 0 μM) in triplicate. Compounds were also subjected to a counter screen using a dose-response curve against the full-length human p97 enzyme to determine preliminary selectivity.

H. sapiens p97 (P55072) = target: T1, H. sapiens p97 (P55072) (Homo sapiens, UniProt P55072); assay: p97 ATPase activity, ATP consumption assay (Kinase-Glo), IC50 / counter screen; type: biochemical
T1 construct: 6xHis (C); made in house; host or cells: E. coli BL21 (DE3)

[2] = target: S. mansoni p97 (Smp_018240) (Schistosoma mansoni, UniProt G4M0P7); assay: biochemical; settings: for IC50: read-out: S. mansoni IC50; for Fold Selectivity: H. sapiens vs S. mansoni p97 IC50
Description: E. coli BL21 (DE3) containing the desired plasmid were grown in LB medium containing […] kanamycin while shaking at 37 °C to an OD600 of 0.6–0.8. The temperature was reduced to 18°C and 0.8 mM isopropyl-beta-D-thiogalactopyranoside (IPTG) was added. The bacterial culture was harvested 16hr later by centrifugation. The resulting pellet was suspended in 60 mL lysis buffer/2L bacterial culture [20 mM Tris (pH 7.4), 300 mM NaCl, 5 mM MgCl2, 20 mM imidazole, 1% Triton X-100, 1 mg/mL lysozyme, 10% glycerol, 3 mM β-mercaptoethanol, 0.2 mM PMSF, and protease inhibitor tablet (Roche)]. […] The lysate was centrifuged at 40,000 × rpm for 35 min at 4°C. The resulting supernatant was incubated with Ni-NTA beads equilibrated to lysis buffer for 1 hr at 4°C before being loaded onto a gravity column. The bead bed was washed with wash buffer [20 mM Tris (pH 7.4), 500 mM NaCl, 5 mM MgCl2, 40 mM imidazole, 0.05% Triton X-100, 10% glycerol, 3 mM β-mercaptoethanol, 0.2 mM PMSF, 0.001 mg/mL Aprotinin, and 0.002 mg/mL Leupeptin], then eluted in the same buffer with 250 mM imidazole in wash buffer. Fractions containing p97 were concentrated using Pierce Protein Concentrators (100k MWCO) and loaded onto a gel-filtration column (Superdex 200PG) and eluted using SEC buffer [20 mM Tris (pH 7.4), 180 mM NaCl, 5 mM MgCl2, and 10% glycerol] at 0.5 mL/min flow rate on a BioRad NGC Chromatography System. Fractions corresponding to an apparent molecular weight of 500 – 600 kDa were collected and analyzed by 4–20% SDS/PAGE to evaluate purity. Concentration was determined using a BSA standard. Fractions containing purified protein were aliquoted, snap frozen in liquid nitrogen, and stored at −80 °C until use.
For manual ATP consumption assays, 1 μM p97 was incubated with 1% DMSO or inhibitor (1% DMSO final) in assay buffer [50 mM Tris (pH 7.5), 20 mM MgCl2, 1 mM EDTA, 0.5 mM tris(2-carboxyethyl)phosphine (TCEP)] for 5 minutes prior to the addition of 20 μM ATP in a 384-well plate for a total reaction volume of 10 μL, and a final concentration of 500nM enzyme and 10 μM ATP. The reaction was allowed to proceed for 50 minutes at room temperature before adding equivalent volume of Kinase-Glo Plus reagent (Promega), and a further incubation of 10 minutes in the dark.
IC50 values were calculated using GraphPad Prism.

adult S. mansoni worms = assay: Treatment of adult S. mansoni worms in culture with inhibitors (attachment to tissue culture substrate, morphology; single 10 μM and dose-response EC50); type: cell-based, Schistosoma mansoni; settings: for EC50: Schistosoma mansoni, read-out: S. mansoni EC50; for effect on adult worms: benzoxazole propiolamide series, treated 72 hours, monitored until D5
Description: Adult S. mansoni (NMRI strain) (6–7 weeks post-infection) worms were harvested from infected female Swiss Webster mice by hepatic portal vein perfusion using 37°C DMEM (Mediatech, Manassas, VA), 8% Horse Serum, and heparin.
Roughly 5 adult worm pairs were placed in 3mL Basch medium in a 12-well culture vessel, and incubated at 37°C, 5% CO2 for the length of the experiment. Compound was administered at D0, D1, and D2, media and drug refreshed every 24 hr. Worms were then allowed to remain in culture until D5, where a final assessment of worm attachment to tissue culture substate was made by light microscopy. Observations on movement and morphology were also recorded. A negative control (0.1% DMSO) and positive control (PZQ; 10 μM in 0.1% DMSO) were included in each experiment, and each experiment was repeated in triplicate for validation. For compounds that caused complete detachment in replicate experiments, the treatment was expanded to three concentrations (10 μM, 5 μM, and 1 μM) following the same treatment schedule and controls as detailed above. […] Each titration experiment was performed in triplicate according to the treatment regimen described above, using DMSO and PZQ as appropriate controls. Morphologies and motility were assessed by light microscopy, and dose-response curves were calculated using the primary readout of parasite attachment to tissue culture substrate in GraphPad Prism. […]
[…] Values were calculated using Prism.

[3] = Hsp97, re-tested screen compounds, 100 μM-1 nM, Fig. 4A
[4] = Smp97, re-tested screen compounds, 100 μM-1 nM, Fig. 4A

T1 sequence (P55072 whole entry): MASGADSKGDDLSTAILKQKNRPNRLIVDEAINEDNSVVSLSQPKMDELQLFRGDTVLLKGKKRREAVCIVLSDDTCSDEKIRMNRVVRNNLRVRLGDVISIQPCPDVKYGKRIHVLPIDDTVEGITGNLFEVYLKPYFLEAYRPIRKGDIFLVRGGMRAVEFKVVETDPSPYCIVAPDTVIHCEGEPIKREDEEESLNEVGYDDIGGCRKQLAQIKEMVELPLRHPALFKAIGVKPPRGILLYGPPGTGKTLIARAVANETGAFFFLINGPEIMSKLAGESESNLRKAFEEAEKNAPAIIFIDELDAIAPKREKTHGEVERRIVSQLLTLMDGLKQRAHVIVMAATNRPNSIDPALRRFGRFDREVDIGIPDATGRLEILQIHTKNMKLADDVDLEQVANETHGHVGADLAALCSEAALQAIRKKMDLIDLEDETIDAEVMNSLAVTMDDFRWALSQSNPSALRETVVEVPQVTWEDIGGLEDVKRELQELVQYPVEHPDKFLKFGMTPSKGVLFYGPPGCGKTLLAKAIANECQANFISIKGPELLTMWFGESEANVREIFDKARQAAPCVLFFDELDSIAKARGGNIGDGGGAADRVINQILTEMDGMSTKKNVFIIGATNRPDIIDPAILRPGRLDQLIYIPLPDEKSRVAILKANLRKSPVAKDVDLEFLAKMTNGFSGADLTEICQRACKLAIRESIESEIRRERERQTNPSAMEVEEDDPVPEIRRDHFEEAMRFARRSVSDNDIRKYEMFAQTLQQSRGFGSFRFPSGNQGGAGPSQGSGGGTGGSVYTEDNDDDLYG
S. mansoni p97 (Smp_018240), sequence (G4M0P7 entry or part of it): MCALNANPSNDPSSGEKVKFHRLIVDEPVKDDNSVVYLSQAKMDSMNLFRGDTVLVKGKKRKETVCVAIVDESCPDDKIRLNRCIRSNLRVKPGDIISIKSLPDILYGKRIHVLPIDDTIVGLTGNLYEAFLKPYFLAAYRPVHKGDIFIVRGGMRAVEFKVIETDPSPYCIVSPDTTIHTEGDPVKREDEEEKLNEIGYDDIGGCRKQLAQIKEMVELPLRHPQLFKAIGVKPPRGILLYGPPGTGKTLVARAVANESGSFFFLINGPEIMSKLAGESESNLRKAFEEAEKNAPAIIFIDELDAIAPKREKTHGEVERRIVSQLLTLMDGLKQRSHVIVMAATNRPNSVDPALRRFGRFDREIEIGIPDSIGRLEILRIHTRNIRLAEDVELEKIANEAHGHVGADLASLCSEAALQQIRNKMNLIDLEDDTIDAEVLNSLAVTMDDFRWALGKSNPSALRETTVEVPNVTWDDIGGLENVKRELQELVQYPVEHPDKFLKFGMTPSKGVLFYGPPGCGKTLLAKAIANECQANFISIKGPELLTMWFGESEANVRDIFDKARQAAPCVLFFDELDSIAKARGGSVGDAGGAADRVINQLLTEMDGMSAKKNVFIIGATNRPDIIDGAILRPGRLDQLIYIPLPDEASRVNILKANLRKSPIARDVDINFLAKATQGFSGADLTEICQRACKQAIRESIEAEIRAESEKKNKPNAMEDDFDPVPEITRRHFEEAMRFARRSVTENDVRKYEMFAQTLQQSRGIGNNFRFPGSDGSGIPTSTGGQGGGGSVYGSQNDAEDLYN

O=C(C=Cc1ccccc1)Nc1ccc2oc(-c3ccccc3)nc2c1 [Compound 135, N-(2-phenylbenzo[d]oxazol-5-yl)cinnamamide]
Screen Inhibition [1]: 1.1% | inhibition of S. mansoni p97 function in the screen [1]: inactive | IC50 (H. sapiens p97 (P55072); [3]): > 100 µM | IC50 [2, 4]: > 100 µM

O=C(C#Cc1ccccc1)Nc1ccc2oc(-c3cccnc3)nc2c1 [Compound 244, 3-phenyl-N-(2-(pyridin-3-yl)benzo[d]oxazol-5-yl)propiolamide]
Screen Inhibition [1]: 16% | IC50 (H. sapiens p97 (P55072); p97 enzyme, Suppl. Fig. 11D): > 100 µM | IC50 ([2]; p97 enzyme, Suppl. Fig. 11D): > 100 µM | activity on the enzyme ([2]; schistosome p97): minimal activity on the enzyme | EC50 (adult S. mansoni worms): 25 µM | effect on adult worms (adult S. mansoni worms; 10 μM): did not have any adverse effects on worm health and survival

O=C(CCc1ccccc1)Nc1ccc2oc(-c3ccccn3)nc2c1 [Compound 326, 3-phenyl-N-(2-(pyridin-2-yl)benzo[d]oxazol-5-yl)propanamide]
Screen Inhibition [1]: 2.2% | inhibition of S. mansoni p97 function in the screen [1]: inactive | IC50 (H. sapiens p97 (P55072); [3]): > 100 µM | IC50 [2, 4]: > 100 µM

O=C(/C=C\c1ccccc1)Nc1ccc2oc(-c3ccccc3)nc2c1 [Compound 324, (Z)-3-phenyl-N-(2-phenylbenzo[d]oxazol-5-yl)acrylamide]
Screen Inhibition [1]: 1.1% | inhibition of S. mansoni p97 function in the screen [1]: inactive | IC50 (H. sapiens p97 (P55072); [3]): > 100 µM | IC50 [2, 4]: > 100 µM

O=C(C#Cc1ccccc1)Nc1ccc2oc(-c3ccncc3)nc2c1 [Compound 242, 3-phenyl-N-(2-(pyridin-4-yl)benzo[d]oxazol-5-yl)propiolamide]
Screen Inhibition [1]: 47% | IC50 (H. sapiens p97 (P55072); p97 enzyme, Suppl. Fig. 11D): 12 ± 0.31 µM | Fold Selectivity ([2]; Suppl. Fig. 11D): 8.6 | IC50 ([2]; p97 enzyme, Suppl. Fig. 11D): 1.4 ± 0.11 µM | time to detachment of adult worms in culture (adult S. mansoni worms; 10 μM): ≤ 48 h | EC50 (adult S. mansoni worms): 9.9 µM | effect on adult worms (adult S. mansoni worms; 10 μM): led to death in adult parasites; also recorded: ultimately leading to their death

O=C(C#Cc1ccccc1)Nc1ccc2oc(-c3ccccc3)nc2c1 [Compound 245, 3-phenyl-N-(2-phenylbenzo[d]oxazol-5-yl)propiolamide]
Screen Inhibition [1]: 36% | IC50 (H. sapiens p97 (P55072); p97 enzyme, Suppl. Fig. 11D): > 100 µM | Fold Selectivity ([2]; Suppl. Fig. 11D): > 30 | IC50 ([2]; p97 enzyme, Suppl. Fig. 11D): 3.8 ± 0.19 µM | EC50 (adult S. mansoni worms): 12 µM | effect on adult worms (adult S. mansoni worms; 10 μM): did cause detachment, it did not lead to parasite death
